Where a name gives a salt, the structure may show the parent alone.
Experiments:
[1] = system: annual weeds: Common Crabgrass (Digitaria sanguinalis), Goosegrass (Eleusine indica), Bitter Fleabane (Erigeron acer); conditions: CD Observation Method visual score (2.0-10.0); 60 g/mou glyphosate, field spray; observed 2.5, 5, 7 and 11 days after application
Source text: (§1) A CD Observation Method was used to make records.
(§2) Assessment Criteria of the CD Observation Method
(§3) A visual method was used with the following criteria: • 2.0 mild poisoning symptom in a spot of leaves • 4.0 a few leaves lost green or turned yellow while the plant growth was substantially normal • 6.0 leaves lost green or turned yellow or some leaves withered, while the stalk was nearly normal, and was yet able to grow slowly • 8.0 caulicle or inflorescence and rachis of leaves withered; most of stalk turned yellow or lost green mildly and was unable to grow normally; the plant died locally • 10.0 the whole plant died

[2] = system: perennial weeds: Alligator Alternanthera Herb (Alternanthera philoxeroides); conditions: CD Observation Method visual score (2.0-10.0); 60 g/mou glyphosate, field spray; observed 2.5, 5, 7 and 11 days after application
Source text: as §1, §2, §3

weeds = conditions: field plot 2 m×2.5 m, spray, effective ingredient 60 g/mou (based on glyphosate) diluted by water to 30 l/mou
Procedure: A sample was taken in an effective ingredient amount of 60 g/mou (based on glyphosate), and was diluted by water to 30 l/mou. The resulting diluted liquor was evenly sprayed into a test field plot with an area of 2 m×2.5 m, repeated twice. […] A CD Observation Method was used to make records.

`O=C(O)CNCP(=O)(O)O` [dimethylamine salt of N-phosphonomethyl glycine] was tested, and the “Control on annual weeds” value [1] was 9.6, the “Control on perennial weeds” value [2] was 9.4 and the “Days for weeds to die” value (weeds) was 9~11 d.

From patent US9221853B2, “Glyphosate dimethylamine salt crystal, preparation method and use thereof” (ZHEJIANG WYNCA CHEMICAL INDUSTRY GROUP CO., LTD., priority 2009, dated 2015)
